What was measured:
[1] = target: AP2-associated protein kinase 1 (Homo sapiens) (UniProt Q2M2I8); settings: Compound concentration 1000.0 nM
[2] = target: cAMP-dependent protein kinase catalytic subunit alpha (Homo sapiens) (UniProt P17612); settings: Compound concentration 1000.0 nM
[3] = target: Serine/threonine-protein kinase B-raf (Homo sapiens) (UniProt P15056); settings: Compound concentration 1000.0 nM
[4] = target: Serine/threonine-protein kinase WNK4 (Homo sapiens) (UniProt Q96J92); settings: Compound concentration 1000.0 nM
[5] = target: Receptor-type tyrosine-protein kinase FLT3 (Homo sapiens) (UniProt P36888); settings: Compound concentration 1000.0 nM
[6] = target: Receptor-type tyrosine-protein kinase FLT3 (Homo sapiens) (UniProt P36888); settings: Compound concentration 1000.0 nM; remark: listed apart in the source
[7] = test system: Receptor-type tyrosine-protein kinase FLT3 (Homo sapiens), P36888 [D835Y]; settings: Compound concentration 1000.0 nM
[8] = target: Homeodomain-interacting protein kinase 3 (Homo sapiens) (UniProt Q9H422); settings: Compound concentration 1000.0 nM
[9] = target: MAP kinase-activated protein kinase 2 (Homo sapiens) (UniProt P49137); settings: Compound concentration 1000.0 nM
[10] = target: 5-hydroxytryptamine receptor 2B (Homo sapiens) (UniProt P41595); settings: Compound concentration 10.0 uM
[11] = target: Insulin receptor (Homo sapiens) (UniProt P06213); settings: Compound concentration 1000.0 nM
[12] = target: Cyclin-dependent kinase 4 (Homo sapiens) (UniProt P11802); settings: Compound concentration 1000.0 nM
[13] = test system: Epidermal growth factor receptor (Homo sapiens), P00533 [L861Q]; settings: Compound concentration 1000.0 nM
[14] = target: 5-hydroxytryptamine receptor 3A (Homo sapiens) (UniProt P46098); settings: Compound concentration 10.0 uM
[15] = target: Testis-specific serine/threonine-protein kinase 3 (Homo sapiens) (UniProt Q96PN8); settings: Compound concentration 1000.0 nM
[16] = target: Ribosomal protein S6 kinase alpha-4 (Homo sapiens) (UniProt O75676); settings: Compound concentration 1000.0 nM
[17] = target: Histamine H2 receptor (Homo sapiens) (UniProt P25021); settings: Compound concentration 10.0 uM
[18] = target: Serine/threonine-protein kinase N2 (Homo sapiens) (UniProt Q16513); settings: Compound concentration 1000.0 nM
[19] = target: LIM domain kinase 1 (Homo sapiens) (UniProt P53667); settings: Compound concentration 1000.0 nM
[20] = target: BMP-2-inducible protein kinase (Homo sapiens) (UniProt Q9NSY1); settings: Compound concentration 1000.0 nM
[21] = test system: Tyrosine-protein kinase ABL1 (Homo sapiens), P00519 [F317I]; settings: Compound concentration 1000.0 nM
[22] = target: Death-associated protein kinase 2 (Homo sapiens) (UniProt Q9UIK4); settings: Compound concentration 1000.0 nM
[23] = target: Tyrosine-protein kinase ITK/TSK (Homo sapiens) (UniProt Q08881); settings: Compound concentration 1000.0 nM
[24] = target: Rhodopsin kinase GRK7 (Homo sapiens) (UniProt Q8WTQ7); settings: Compound concentration 1000.0 nM
[25] = target: Dual specificity protein kinase CLK1 (Homo sapiens) (UniProt P49759); settings: Compound concentration 1000.0 nM
[26] = target: Myosin-IIIb (Homo sapiens) (UniProt Q8WXR4); settings: Compound concentration 1000.0 nM
[27] = target: Muscle, skeletal receptor tyrosine-protein kinase (Homo sapiens) (UniProt O15146); settings: Compound concentration 1000.0 nM
[28] = target: Serine/threonine-protein kinase N1 (Homo sapiens) (UniProt Q16512); settings: Compound concentration 1000.0 nM
[29] = target: Serine/threonine-protein kinase DCLK3 (Homo sapiens) (UniProt Q9C098); settings: Compound concentration 1000.0 nM
[30] = test system: Fibroblast growth factor receptor 3 (Homo sapiens), P22607 [G697C]; settings: Compound concentration 1000.0 nM
[31] = test system: Receptor-type tyrosine-protein kinase FLT3 (Homo sapiens), P36888 [UNDEFINED MUTATION]; settings: Compound concentration 1000.0 nM
[32] = target: SRSF protein kinase 2 (Homo sapiens) (UniProt P78362); settings: Compound concentration 1000.0 nM
[33] = target: Tyrosine-protein kinase Blk (Homo sapiens) (UniProt P51451); settings: Compound concentration 1000.0 nM
[34] = target: Ephrin type-A receptor 6 (Homo sapiens) (UniProt Q9UF33); settings: Compound concentration 1000.0 nM
[35] = target: 5'-AMP-activated protein kinase catalytic subunit alpha-1 (Homo sapiens) (UniProt Q13131); settings: Compound concentration 1000.0 nM
[36] = target: Delta-type opioid receptor (Homo sapiens) (UniProt P41143); settings: Compound concentration 10.0 uM
[37] = target: Activated CDC42 kinase 1 (Homo sapiens) (UniProt Q07912); settings: Compound concentration 1000.0 nM
[38] = target: Cyclin-dependent kinase-like 3 (Homo sapiens) (UniProt Q8IVW4); settings: Compound concentration 1000.0 nM
[39] = target: Ephrin type-A receptor 7 (Homo sapiens) (UniProt Q15375); settings: Compound concentration 1000.0 nM
[40] = target: Myosin light chain kinase 2, skeletal/cardiac muscle (Homo sapiens) (UniProt Q9H1R3); settings: Compound concentration 1000.0 nM
[41] = target: D(4) dopamine receptor (Homo sapiens) (UniProt P21917); settings: Compound concentration 10.0 uM
[42] = target: Serine/threonine-protein kinase PAK 6 (Homo sapiens) (UniProt Q9NQU5); settings: Compound concentration 1000.0 nM
[43] = test system: Epidermal growth factor receptor (Homo sapiens), P00533 [UNDEFINED MUTATION]; settings: Compound concentration 1000.0 nM
[44] = target: Vascular endothelial growth factor receptor 1 (Homo sapiens) (UniProt P17948); settings: Compound concentration 1000.0 nM
[45] = target: Myotonin-protein kinase (Homo sapiens) (UniProt Q09013); settings: Compound concentration 1000.0 nM
[46] = target: Tyrosine-protein kinase JAK2 (Homo sapiens) (UniProt O60674); settings: Compound concentration 1000.0 nM

Insulin receptor (Homo sapiens), sequence (P06213 28-758 limits assumed): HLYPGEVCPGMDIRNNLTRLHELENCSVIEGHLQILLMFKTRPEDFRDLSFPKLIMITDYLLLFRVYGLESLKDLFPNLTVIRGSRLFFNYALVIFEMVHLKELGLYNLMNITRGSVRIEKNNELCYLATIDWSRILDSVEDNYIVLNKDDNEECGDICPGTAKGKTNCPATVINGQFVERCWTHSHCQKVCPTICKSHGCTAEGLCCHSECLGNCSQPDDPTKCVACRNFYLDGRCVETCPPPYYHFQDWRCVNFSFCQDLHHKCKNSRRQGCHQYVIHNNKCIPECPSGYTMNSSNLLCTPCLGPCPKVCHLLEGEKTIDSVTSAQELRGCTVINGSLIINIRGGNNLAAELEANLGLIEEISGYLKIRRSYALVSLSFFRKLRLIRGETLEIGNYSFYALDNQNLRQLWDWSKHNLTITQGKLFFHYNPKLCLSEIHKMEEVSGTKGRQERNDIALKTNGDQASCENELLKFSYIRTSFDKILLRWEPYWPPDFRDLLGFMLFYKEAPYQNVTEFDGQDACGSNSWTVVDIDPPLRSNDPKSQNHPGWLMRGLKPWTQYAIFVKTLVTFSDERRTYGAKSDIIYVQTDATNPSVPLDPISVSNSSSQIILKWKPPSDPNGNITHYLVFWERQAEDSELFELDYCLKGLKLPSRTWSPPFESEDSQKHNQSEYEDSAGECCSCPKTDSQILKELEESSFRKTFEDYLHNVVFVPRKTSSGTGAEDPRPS
Insulin receptor (Homo sapiens), sequence (P06213 763-1382 limits assumed): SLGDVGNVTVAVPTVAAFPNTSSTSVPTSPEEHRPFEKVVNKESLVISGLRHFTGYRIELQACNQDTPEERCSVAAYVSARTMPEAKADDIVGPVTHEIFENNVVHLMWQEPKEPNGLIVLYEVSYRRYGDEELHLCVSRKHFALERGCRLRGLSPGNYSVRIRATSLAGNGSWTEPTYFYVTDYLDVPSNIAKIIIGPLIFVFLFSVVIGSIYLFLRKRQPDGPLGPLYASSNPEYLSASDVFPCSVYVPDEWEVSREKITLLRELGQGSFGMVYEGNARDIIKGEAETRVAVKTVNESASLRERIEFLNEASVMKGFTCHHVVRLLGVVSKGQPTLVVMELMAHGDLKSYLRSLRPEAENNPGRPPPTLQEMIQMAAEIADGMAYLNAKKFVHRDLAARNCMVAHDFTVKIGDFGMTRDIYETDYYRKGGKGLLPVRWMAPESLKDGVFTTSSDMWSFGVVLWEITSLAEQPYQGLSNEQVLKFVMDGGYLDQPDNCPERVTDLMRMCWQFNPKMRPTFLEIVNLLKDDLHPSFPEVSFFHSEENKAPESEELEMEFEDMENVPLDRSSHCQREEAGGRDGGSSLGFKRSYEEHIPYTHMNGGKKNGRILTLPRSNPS
Histamine H2 receptor (Homo sapiens), sequence (P25021 whole entry): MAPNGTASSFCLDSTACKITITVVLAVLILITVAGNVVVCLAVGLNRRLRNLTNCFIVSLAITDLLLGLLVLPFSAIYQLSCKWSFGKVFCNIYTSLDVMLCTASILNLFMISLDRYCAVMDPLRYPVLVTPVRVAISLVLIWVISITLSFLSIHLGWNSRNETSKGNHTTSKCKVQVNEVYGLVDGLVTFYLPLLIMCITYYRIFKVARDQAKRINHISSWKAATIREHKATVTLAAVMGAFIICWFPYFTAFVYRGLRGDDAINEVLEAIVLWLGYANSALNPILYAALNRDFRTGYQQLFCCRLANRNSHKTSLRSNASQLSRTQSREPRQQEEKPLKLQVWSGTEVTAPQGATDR
Ephrin type-A receptor 7 (Homo sapiens), sequence (Q15375 28-998 limits assumed): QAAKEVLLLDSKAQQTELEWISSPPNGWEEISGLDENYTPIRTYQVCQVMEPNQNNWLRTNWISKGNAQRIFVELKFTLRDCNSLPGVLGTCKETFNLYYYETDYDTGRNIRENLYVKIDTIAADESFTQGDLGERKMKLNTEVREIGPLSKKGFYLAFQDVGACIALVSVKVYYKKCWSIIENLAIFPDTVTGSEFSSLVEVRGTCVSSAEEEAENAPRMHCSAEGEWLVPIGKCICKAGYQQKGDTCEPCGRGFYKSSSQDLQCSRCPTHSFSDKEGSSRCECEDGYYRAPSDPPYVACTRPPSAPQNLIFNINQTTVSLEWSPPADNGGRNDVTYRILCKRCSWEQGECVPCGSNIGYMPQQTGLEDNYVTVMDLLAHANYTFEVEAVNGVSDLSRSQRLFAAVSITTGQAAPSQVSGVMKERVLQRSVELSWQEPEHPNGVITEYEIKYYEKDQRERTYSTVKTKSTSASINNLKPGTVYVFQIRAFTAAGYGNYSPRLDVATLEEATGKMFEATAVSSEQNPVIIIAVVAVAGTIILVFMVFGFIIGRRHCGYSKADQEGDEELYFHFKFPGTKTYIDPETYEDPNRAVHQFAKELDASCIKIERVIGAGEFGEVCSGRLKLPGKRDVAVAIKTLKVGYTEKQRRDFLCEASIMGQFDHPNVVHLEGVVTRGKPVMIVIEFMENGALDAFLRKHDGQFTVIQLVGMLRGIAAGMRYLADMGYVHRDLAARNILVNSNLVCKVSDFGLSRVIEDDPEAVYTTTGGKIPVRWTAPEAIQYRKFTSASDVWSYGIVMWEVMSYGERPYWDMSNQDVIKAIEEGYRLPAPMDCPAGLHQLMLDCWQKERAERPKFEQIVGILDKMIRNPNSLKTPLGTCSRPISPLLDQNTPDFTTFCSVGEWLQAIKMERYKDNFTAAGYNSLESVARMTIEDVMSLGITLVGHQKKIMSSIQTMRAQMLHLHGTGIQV
Muscle, skeletal receptor tyrosine-protein kinase (Homo sapiens), sequence (O15146 whole entry): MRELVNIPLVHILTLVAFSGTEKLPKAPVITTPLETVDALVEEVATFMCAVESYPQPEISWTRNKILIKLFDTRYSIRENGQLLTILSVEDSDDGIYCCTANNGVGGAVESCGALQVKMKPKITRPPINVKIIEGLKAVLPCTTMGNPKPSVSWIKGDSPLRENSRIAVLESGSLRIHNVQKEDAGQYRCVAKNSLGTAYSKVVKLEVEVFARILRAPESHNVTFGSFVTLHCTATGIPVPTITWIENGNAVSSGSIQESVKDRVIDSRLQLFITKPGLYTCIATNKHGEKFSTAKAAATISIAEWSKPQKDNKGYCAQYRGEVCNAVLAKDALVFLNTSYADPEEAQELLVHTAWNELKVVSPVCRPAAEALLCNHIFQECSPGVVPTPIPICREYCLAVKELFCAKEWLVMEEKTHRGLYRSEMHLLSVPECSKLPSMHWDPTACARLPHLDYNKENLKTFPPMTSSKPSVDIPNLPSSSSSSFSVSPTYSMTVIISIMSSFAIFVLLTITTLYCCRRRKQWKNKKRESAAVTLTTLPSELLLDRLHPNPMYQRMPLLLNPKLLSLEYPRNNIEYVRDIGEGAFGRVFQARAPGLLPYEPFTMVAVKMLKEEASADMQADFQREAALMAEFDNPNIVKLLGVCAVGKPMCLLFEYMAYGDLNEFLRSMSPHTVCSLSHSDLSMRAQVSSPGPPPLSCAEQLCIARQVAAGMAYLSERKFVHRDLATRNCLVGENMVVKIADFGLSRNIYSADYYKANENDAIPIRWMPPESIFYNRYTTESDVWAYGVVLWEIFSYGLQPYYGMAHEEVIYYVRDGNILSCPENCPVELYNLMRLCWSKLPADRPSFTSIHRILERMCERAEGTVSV
Homeodomain-interacting protein kinase 3 (Homo sapiens), sequence (Q9H422 whole entry, looked up): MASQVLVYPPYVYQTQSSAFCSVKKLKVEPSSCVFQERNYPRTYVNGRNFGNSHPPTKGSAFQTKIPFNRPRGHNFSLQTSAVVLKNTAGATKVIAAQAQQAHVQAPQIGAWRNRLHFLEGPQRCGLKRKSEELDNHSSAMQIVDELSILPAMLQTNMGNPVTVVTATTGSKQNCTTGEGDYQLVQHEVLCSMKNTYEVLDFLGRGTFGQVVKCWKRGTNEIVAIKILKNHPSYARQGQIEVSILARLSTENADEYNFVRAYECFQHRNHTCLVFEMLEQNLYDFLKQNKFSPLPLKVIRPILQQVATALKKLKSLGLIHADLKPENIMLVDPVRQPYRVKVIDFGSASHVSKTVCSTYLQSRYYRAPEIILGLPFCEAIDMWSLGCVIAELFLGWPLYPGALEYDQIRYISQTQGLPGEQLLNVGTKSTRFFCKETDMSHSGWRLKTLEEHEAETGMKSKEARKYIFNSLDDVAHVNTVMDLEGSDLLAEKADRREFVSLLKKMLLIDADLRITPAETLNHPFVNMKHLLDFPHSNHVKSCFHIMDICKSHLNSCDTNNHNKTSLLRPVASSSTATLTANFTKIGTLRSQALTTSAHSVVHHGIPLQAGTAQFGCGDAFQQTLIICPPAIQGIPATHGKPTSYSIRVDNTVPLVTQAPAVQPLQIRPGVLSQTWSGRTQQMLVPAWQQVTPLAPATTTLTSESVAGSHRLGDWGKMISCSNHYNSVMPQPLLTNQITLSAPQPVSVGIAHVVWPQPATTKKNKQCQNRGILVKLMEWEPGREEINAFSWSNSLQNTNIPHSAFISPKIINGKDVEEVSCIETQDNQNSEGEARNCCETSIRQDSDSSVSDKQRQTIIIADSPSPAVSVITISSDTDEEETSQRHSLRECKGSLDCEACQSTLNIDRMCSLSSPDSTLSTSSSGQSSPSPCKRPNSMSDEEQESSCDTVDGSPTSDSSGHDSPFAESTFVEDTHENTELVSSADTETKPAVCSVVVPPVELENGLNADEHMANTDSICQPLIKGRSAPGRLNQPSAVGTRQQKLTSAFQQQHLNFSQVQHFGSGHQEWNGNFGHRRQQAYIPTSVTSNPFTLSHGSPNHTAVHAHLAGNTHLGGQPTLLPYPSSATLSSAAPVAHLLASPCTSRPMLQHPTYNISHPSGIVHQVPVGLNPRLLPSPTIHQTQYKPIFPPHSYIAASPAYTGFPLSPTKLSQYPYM
Cyclin-dependent kinase 4 (Homo sapiens), sequence (P11802 whole entry): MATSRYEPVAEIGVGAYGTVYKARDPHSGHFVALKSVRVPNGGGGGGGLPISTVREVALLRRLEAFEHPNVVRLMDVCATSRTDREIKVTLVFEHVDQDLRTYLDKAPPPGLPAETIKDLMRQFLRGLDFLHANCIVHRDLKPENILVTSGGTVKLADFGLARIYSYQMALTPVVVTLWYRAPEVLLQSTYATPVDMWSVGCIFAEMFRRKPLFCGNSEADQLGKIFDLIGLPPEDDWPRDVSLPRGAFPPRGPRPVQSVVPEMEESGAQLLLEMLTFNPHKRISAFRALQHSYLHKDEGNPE

Nc1cnc(N2CCc3cc(S(=O)(=O)Nc4c(F)cc(Cl)cc4F)cc(N4CCCC4=O)c32)nc1
residual activity [1]: 100% | residual activity [2]: 100% | residual activity [3]: 98% | residual activity [4]: 100% | residual activity [5]: 91% | residual activity [6]: 81% | residual activity [7]: 100% | residual activity [8]: 100% | residual activity [9]: 100% | inhibition [10]: 12.9% | residual activity [11]: 89% | residual activity [12]: 97% | residual activity [13]: 100% | inhibition [14]: 0.32% | residual activity [15]: 100% | residual activity [16]: 100% | inhibition [17]: 8.19% | residual activity [18]: 100% | residual activity [19]: 100% | residual activity [20]: 88% | residual activity [21]: 100% | residual activity [22]: 91% | residual activity [23]: 100% | residual activity [24]: 99% | residual activity [25]: 85% | residual activity [26]: 100% | residual activity [27]: 100% | residual activity [28]: 95% | residual activity [29]: 85% | residual activity [30]: 89% | residual activity [31]: 100% | residual activity [32]: 100% | residual activity [33]: 100% | residual activity [34]: 98% | residual activity [35]: 100% | inhibition [36]: -1.24% | residual activity [37]: 91% | residual activity [38]: 100% | residual activity [39]: 85% | residual activity [40]: 87% | inhibition [41]: -5.02% | residual activity [42]: 100% | residual activity [43]: 100% | residual activity [44]: 93% | residual activity [45]: 100% | residual activity [46]: 100%

Cn1nc(C(F)(F)F)cc1-c1cnc(N2CCc3cc(S(=O)(=O)Nc4c(F)cc(Cl)cc4F)cc(N4CCCC4=O)c32)nc1 [TP-020]
residual activity [1]: 100% | residual activity [2]: 100% | residual activity [3]: 82% | residual activity [4]: 83% | residual activity [5]: 100% | residual activity [6]: 85% | residual activity [7]: 100% | residual activity [8]: 85% | residual activity [9]: 73% | inhibition [10]: 24.7% | residual activity [11]: 89% | residual activity [12]: 68% | residual activity [13]: 100% | inhibition [14]: 7.45% | residual activity [15]: 94% | residual activity [16]: 82% | inhibition [17]: 12.1% | residual activity [18]: 82% | residual activity [19]: 100% | residual activity [20]: 92% | residual activity [21]: 85% | residual activity [22]: 94% | residual activity [23]: 97% | residual activity [24]: 85% | residual activity [25]: 87% | residual activity [26]: 100% | residual activity [27]: 87% | residual activity [28]: 100% | residual activity [29]: 86% | residual activity [30]: 100% | residual activity [31]: 82% | residual activity [32]: 34% | residual activity [33]: 100% | residual activity [34]: 89% | residual activity [35]: 98% | inhibition [36]: 28.7% | residual activity [37]: 100% | residual activity [38]: 100% | residual activity [39]: 78% | residual activity [40]: 100% | inhibition [41]: 9.09% | residual activity [42]: 100% | residual activity [43]: 100% | residual activity [44]: 95% | residual activity [45]: 82% | residual activity [46]: 82%

From ChEMBL document CHEMBL4507302, “Data for DCP probe TP-020” (2021)
